Reference: ChEMBL document CHEMBL1152206, “Vasodilatation effect of farnesylacetones, active constituents of Sargassum siliquastrum, on the basilar and carotid arteries of rabbits” (Bioorg Med Chem Lett, 2008)
pEC50: −log10 of the molar value.

Assays:
[1] = Vasorelaxant activity against depolarization-induced basilar artery constriction in white rabbit; type: functional, tissue-based, Oryctolagus cuniculus
[2] = Vasorelaxant activity against depolarization-induced carotid artery constriction in white rabbit; type: functional, tissue-based, Oryctolagus cuniculus

Row | SMILES | pEC50 [1] | pEC50 [2]
1 | CC(=O)CC/C=C(\C)CCC/C(C)=C\C(=O)CC(C)C | 5.43 | 4.84
2 | CC(=O)CC/C=C(\C)CCC/C(C)=C/C(=O)CC(C)C | 5.91 | 4.86
